In patent US10167276B2, “Compounds and methods for inhibiting JAK” (Dizal (Jiangsu) Pharmaceutical Co., Ltd., priority 2015, dated 2019):

test system: STAT3 phosphorylation in NCI-H1975 cells; assay: Cellular pSTAT3 assay in NCI-H1975 cells; assay type: cell-based; conditions: Homo sapiens, 2 hours with compound
Method: NCI-H1975 cells were plated onto Costar #3701 96 or 384 well tissue-culture treated plates at 5,000 cells/well in 30 uL medium (RPMI, 10% FBS, supplemented with L-glutamine) and incubated overnight at 37° C. in 5% CO2. Phospho STAT3 signal was quantitated utilizing Cell Signaling Technology #7146B Pathscan […] STAT3 antibody pair kit, following manufacturer's instructions.
Cells were dosed with compound and incubated at 37° C. in 5% CO2 for 2 hours, after which medium and compound were aspirated and cells lysed with 35 uL cold 1×Cell Signaling Lysis buffer and chilled at 4° C. for 1-2 hours. Lysate was incubated on STAT3 capture plates at 4° C. overnight, washed 3× with Tris-Buffered Saline with 0.05% Tween® 20 (TBST), then […] STAT3 detection antibody was applied for 2 hours. Following washing with TBST (3×), HRP-secondary antibody was applied for 2 hours. After additional washing, signal was detected using TMB and Stop solution and read at 450 nm using Tecan Infinite M100.

Row | Structure (SMILES) | IC50
1 | CCOc1nn(C)cc1Nc1ncc(F)c(-c2c[nH]c3c(NC(=O)[C@@H](C)N4CCN(C)C[C@H]4C)cccc23)n1 [Example 12, (2R)-2-[(2R)-2,4-dimethylpiperazin-1-yl]-N-(3-{2-[(3-ethoxy-1-methyl-1H-pyrazol-4-yl)amino]-5-fluoropyrimidin-4-yl}-1H-indol-7-yl)propanamide] | 246 nM
2 | CCOc1nn(C)cc1Nc1ncc(F)c(-c2c[nH]c3c(NC(=O)[C@@H](C)N4CCN(C)[C@H](C)C4)cccc23)n1 [Example 13, (2R)-2-[(3R)-3,4-dimethylpiperazin-1-yl]-N-(3-{2-[(3-ethoxy-1-methyl-1H-pyrazol-4-yl)amino]-5-fluoropyrimidin-4-yl}-1H-indol-7-yl)propanamide] | 222 nM
3 | COc1nn(C)cc1Nc1ncc(C)c(-c2c[nH]c3c(NC(=O)[C@@H](C)N4CCN(C)[C@@H](C)C4)cccc23)n1 [Example 14, (2R)-2-[(3S)-3,4-dimethylpiperazin-1-yl]-N-(3-{2-[(3-methoxy-1-methyl-1H-pyrazol-4-yl)amino]-5-methylpyrimidin-4-yl}-1H-indol-7-yl)propanamide] | 70.3 nM
4 | COc1nn(C)cc1Nc1ncc(C)c(-c2c[nH]c3c(NC(=O)[C@@H](C)N4CCN(CCO)CC4)cccc23)n1 [Example 15, (2R)-2-[4-(2-hydroxyethyl)piperazin-1-yl]-N-(3-{2-[(3-methoxy-1-methyl-1H-pyrazol-4-yl)amino]-5-methylpyrimidin-4-yl}-1H-indol-7-yl)propanamide] | 131 nM
5 | CCN1CCN([C@H](C)C(=O)Nc2cccc3c(-c4nc(Nc5cn(C)nc5OC)ncc4C)c[nH]c23)CC1 [Example 16, (2R)-2-(4-ethylpiperazin-1-yl)-N-(3-{2-[(3-methoxy-1-methyl-1H-pyrazol-4-yl)amino]-5-methylpyrimidin-4-yl}-1H-indol-7-yl)propanamide] | 105 nM
6 | COCCN1CCN([C@H](C)C(=O)Nc2cccc3c(-c4nc(Nc5cn(C)nc5OC)ncc4C)c[nH]c23)CC1 [Example 17, (2R)-2-[4-(2-methoxyethyl)piperazin-1-yl]-N-(3-{2-[(3-methoxy-1-methyl-1H-pyrazol-4-yl)amino]-5-methylpyrimidin-4-yl}-1H-indol-7-yl)propanamide] | 229 nM
7 | COc1nn(C)cc1Nc1ncc(C)c(-c2c[nH]c3c(NC(=O)[C@@H](C)N4CCN(C)[C@H](C)C4)cccc23)n1 [Example 18, (2R)-2-[(3R)-3,4-dimethylpiperazin-1-yl]-N-(3-{2-[(3-methoxy-1-methyl-1H-pyrazol-4-yl)amino]-5-methylpyrimidin-4-yl}-1H-indol-7-yl)propanamide] | 175 nM
8 | COc1nn(C)cc1Nc1ncc(C)c(-c2c[nH]c3c(NC(=O)[C@@H](C)N4CCN(C)C[C@@H]4C)cccc23)n1 [Example 19, (2R)-2-[(2S)-2,4-dimethylpiperazin-1-yl]-N-(3-{2-[(3-methoxy-1-methyl-1H-pyrazol-4-yl)amino]-5-methylpyrimidin-4-yl}-1H-indol-7-yl)propanamide] | 470 nM

Other lines, results leading:

Row | IC50 | Structure (SMILES)
9 | > 3000 nM | CCOc1nn(C)cc1Nc1ncc(F)c(-c2c[nH]c3c(NC(=O)[C@H](C)N4CCN(C)C[C@@H]4C)cccc23)n1 [Example 10b, (2S)-2-[(2S)-2,4-dimethylpiperazin-1-yl]-N-(3-{2-[(3-ethoxy-1-methyl-1H-pyrazol-4-yl)amino]-5-fluoropyrimidin-4-yl}-1H-indol-7-yl)propanamide]
10 | 209 nM | CCOc1nn(C)cc1Nc1ncc(F)c(-c2c[nH]c3c(NC(=O)[C@@H](C)N4CCN(C)[C@@H](C)C4)cccc23)n1 [Example 11a, (2R)-2-[(3S)-3,4-dimethylpiperazin-1-yl]-N-(3-{2-[(3-ethoxy-1-methyl-1H-pyrazol-4-yl)amino]-5-fluoropyrimidin-4-yl}-1H-indol-7-yl)propanamide]
11 | 2280 nM | CCOc1nn(C)cc1Nc1ncc(F)c(-c2c[nH]c3c(NC(=O)[C@H](C)N4CCN(C)[C@@H](C)C4)cccc23)n1 [Example 11b, (2S)-2-[(3S)-3,4-dimethylpiperazin-1-yl]-N-(3-{2-[(3-ethoxy-1-methyl-1H-pyrazol-4-yl)amino]-5-fluoropyrimidin-4-yl}-1H-indol-7-yl)propanamide]
